Consider two molecules from patent publication US20120071493A1, “SUBSTITUTED 8-SULFONYL-2,3,4,5-TETRAHYDRO-1H-GAMMA-CARBOLINES, LIGANDS AND PHARMACEUTICAL COMPOSITION; METHOD FOR THE PRODUCTION AND USE OF SAME” (priority 2009, published 2012).

For experiment [1], the system named is 31 receptors (alpha-adrenoceptors, dopamine, histamine, imidazoline, sigma, norepinephrine and serotonin receptors). Kind of experiment: Displacement of radio-labelled ligands from 31 receptors (MDS Pharma Services). The format is binding. Here is the method: The interaction was estimated by the displacement of radio-labeled […] from their complex with the corresponding receptors by compound 1.1.1(4).HCl at its concentration of 10 mkM. […] The interaction was estimated by the displacement of radio-labeled […] from their complex with the corresponding receptors by compound 1.2.1(3).HCl at its concentration of 1 mkM. […] All radio-labelled experiments were carried out by MDS Pharma Services firm ([…].com/Services, Taipei, Taiwan) according to their protocols. Estimation of the results obtained is indicative of wide range of pharmacological activity of γ-carbolines of the general formula 1 towards alpha-adrenoceptors, dopamine receptors, histamine receptors, imidazoline receptors, sigma receptors, norepinephrine receptors and serotonin receptors.

Another experiment deals with male mice of SHK line. Nature of the experiment: Novel Object Recognition test, Scopolamine-disturbed recognition. Format: in vivo. Particulars: 0.05 mg/kg and 0.2 mg/kg intraperitoneally 30 minutes before training; Scopolamine 1 mg/kg. Here is the method: The test was carried out in aged male mice of SHK line. Plexiglass plus maze, consisted of 4 dead-end chambers (numbered 1, 2, 3, 4), joined together through the fifth central chamber, was used in experiments. Mouse was placed into central chamber and allowed to explore the maze. Floor was cleaned after each animal. The sequence of chamber entries and duration of visits were registered by observer. Test was ended after 13 entries into dead-end chambers. Criterion for entry was location of all animal's paws inside the chamber at the same time.
During the training an animal was placed in the maze with one equiform bowl in each side chamber. In the course of testing (one hour after training) two opposite standing bowls were replaced by identical flasks, and animal was allowed to explore the maze. The time spent by animal in each side chamber was registered during the periods of training and testing. Index of novel object recognition was calculated as ratio of time spent by animal in side chambers with novel objects to the total time spent by it in all side chambers. In comparison with the training phase the appearance of novel object extends the time spent by animal in the chamber with novel object (so-called effect of novel object recognition). The recognition of novel objects was disturbed under action of Scopolamine administered in 1 mg/kg dose intraperitoneally 30 minutes before training, and recognition index was decreased.

Experiment [2] has as its system animals as in example 18.1.1. Nature of the experiment: Passive avoidance, memory disturbed by MK-801. The format is in vivo, mice. Particulars: 0.2 mg/kg and 1 mg/kg intraperitoneally before training; MK-801 0.1 mg/kg.
Experiment [3] relates to mice. Kind of experiment: Mice Training in the Morris Water maze, Scopolamine memory impairment. Format: in vivo. Particulars: intraperitoneally 35-40 minutes before training, with Scopolamine. Here is the method: Mice Training in the Morris Water maze. A round pool filled with water at 20-22° C. was used. There was a round ceramic platform of 14 cm height in the pool. Animals's (mice) behavior was registered with an automated computer video system in combination with software package of movement analysis Any-maze (Stoelting Co., CIIIA). Selection of mice suitable for training was carried out before the experiments. For this purpose the platform was placed 1 cm above the water level and an animal was put on the platform for 20 seconds. Then the mouse was sunk into the water on the opposite side of the pool, allowed to find the platform and climb it for 60 seconds, where it was left for 20 seconds. After that the mouse was repeatedly immersed into water on the opposite side of the pool and allowed to find the platform. If it failed in finding the platform within 60 seconds the experimentator helped it to find the platform and climb it. If the mice couldn't find the platform itself in two consecutive attempts it was excluded from the experiment. During the next two days the platform was placed 0.5 cm lower the water level. Every day the mice were given four attempts for finding the platform within 60 seconds. The time interval between the attempts was 20 seconds, during which the mice stayed on the platform. Every day before the first attempt the mice was placed on the platform for 20 seconds. […]

The test system of experiment [4] is mice. Nature of the experiment: Porsolt's Forced Swim Test. Particulars: injected for 4 days in doses of 1 mg/kg; 15 minutes test. Format: in vivo. Here is the method:
Mice Behavior in Porsolt's Forced Swim Test. The test apparatus represented a plastic vessel filled with water up to height of 18 cm at 20-22° C. Mice were placed in water and for 15 minutes the duration of immobile hanging in water-so called behavioural […], which is considered to be a measure of depressively-like state, was registered. Automated computerized detection of motion with videosystem and Any-maze programm were used in test. […] This testifies the decreasing of time of a depressively-like state.

Experiment [5] has as its system mice. Nature of the experiment: Tail suspension test. The format is in vivo. Particulars: injected for 4 days in doses of 0.05 mg/kg; 6 minutes test. As to the method:
Mice behavior in tail suspension test. Mice were suspended by tail with scotch tape on holder over horizontal surface at a height of about 40 cm, and for 6 minutes the total duration of complete immobility episodes which is considered to be a measure of depressively-like state was registered. Automated computerized detection of motion with videosystem and Any-maze programm were used in test. […] This testifies the decreasing of time of a depressively-like state.

On to `CN1CCc2c(c3cc(S(=O)(=O)c4ccccc4)ccc3n2C)C1.Cl` [1.1.1(4)•HCl, 2,5-dimethyl-8-(phenylsulfonyl)-2,3,4,5-tetrahydro-1H-γ-carboline hydrochloride], for which, in experiment [1] (at 13 of 31 receptors, compound at 10 mkM, FIG. 1), the “% of radio-labelled ligands displacement” value was over 60%. The “number of receptors the compound actively interacts with (displacement >60%)” value in experiment [1] (of 31 receptors, compound at 10 mkM, FIG. 1) came out at 13. Moreover, in the experiment on male mice of SHK line, the “prevention of Scopolamine influence on novel object recognition” value is given as “could be prevented”. The “effect on amnesia caused by MK-801, passive avoidance” value in experiment [2] is reported as “decrease amnesia caused by MK-801 markedly”. Besides, the “effect on memory impairment caused by Scopolamine, Morris water maze” value in the experiment with mice [3] is given as “decreasing of memory impairment”. The “duration of immobile hanging of mice in water” value in the experiment with mice [4] is listed as “decreased almost thrice”. Besides, the “duration of mice complete immobility” value with mice [5] was “decreased significantly”.
For `CN1CCc2[nH]c3ccc(S(=O)(=O)Nc4cccc(F)c4)cc3c2C1.Cl` [1.2.1(3)•HCl, 2-methyl-2,3,4,5-tetrahydro-1H-γ-carboline-8-sulfonic acid 3-fluorophenyl amide hydrochloride], the “interaction with 31 receptors (displacement of radio-labelled ligands)” value in experiment [1] (FIG. 2, compound at 1 mkM per figure legend) is “Analogous results”. Besides, the “prevention of Scopolamine influence on novel object recognition” value with male mice of SHK line is given as “could be prevented”. Further, the “effect on amnesia caused by MK-801, passive avoidance” value in experiment [2] is on record as “analogous effect”. Further, the “effect on memory impairment caused by Scopolamine, Morris water maze” value in the experiment with mice [3] was “decreasing of memory impairment”. Further, the “duration of immobile hanging of mice in water” value in the experiment on mice [4] was “decreased almost thrice”. In the experiment on mice [5], the “duration of mice complete immobility” value is on record as “decreased significantly”.
